We go through nine compounds from PMC7316490, “Dihydrofolate Reductase Is a Valid Target for Antifungal Development in the Human Pathogen Candida albicans” (mSphere, 2020).

The subject of test [1] is disseminated Candida infections. Particulars: cited from earlier work; for fraction of patients nonresponsive to treatment: patients with disseminated Candida infections.
For test [2], the target named is T1, Candida albicans dihydrofolate reductase (Candida albicans, UniProt P22906).
T1 construct: The optimized DFR1 ORF was then cloned into pET15b; 6xHis; host or cells: Escherichia coli
T1 sequence (P22906 1-192): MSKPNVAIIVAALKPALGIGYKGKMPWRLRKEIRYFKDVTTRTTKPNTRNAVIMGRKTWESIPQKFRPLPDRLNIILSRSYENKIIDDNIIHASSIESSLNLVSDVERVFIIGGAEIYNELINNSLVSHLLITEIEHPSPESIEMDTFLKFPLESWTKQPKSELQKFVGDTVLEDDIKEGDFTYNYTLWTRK
The test can be described thus: biochemical. Type of test: biochemical. Particulars: for inhibition of C. albicans DHFR (in words): dose-response experiments, purified enzyme. From the text:
Finally, we tested a panel of additional antifolates to examine the relationship between their antifungal potencies and capacities to inhibit C. albicans DHFR. The enzyme was purified using a 6×His tag ([45], [46]), and activity was detected by measuring the conversion of NADPH to NADP^+ at an optical density at 340 nm (OD340) ([34]).
The C. albicans DFR1 open reading frame (ORF) sequence was retrieved from the Candida Genome Database ([68]) and was codon optimized for expression in Escherichia coli. The optimized DFR1 ORF was then cloned into pET15b ([69]) to allow propagation and expression of C. albicans Dfr1p in E. coli. Cultures of E. coli transformed with pET15b-CaDfr1p (Biomatik) were grown overnight in LB plus ampicillin. The culture was diluted 1:100 into fresh medium and incubated at 35°C for 6 h; then Dfr1p expression was induced with isopropyl-β-D-thiogalactopyranoside (IPTG) at a final concentration of 0.5 mM for 16 h. Cells were collected by centrifugation and resuspended in binding buffer (6 g/liter Tris base, pH 7.5, 8.8 g/liter NaCl, 1 mM dithiothreitol [DTT], 0.68 g/liter imidazole, 5% glycerol, 1× protease inhibitor). Resuspended cells were lysed with 1 mg/ml chicken white lysozyme (Sigma) for 60 min at 4°C. Then, Triton X-100 and NaCl were added to 0.1% and 0.5 M, respectively. The lysate was then centrifuged, and the supernatant was collected. The supernatant was added to nickel resin beads (Sigma) and incubated at 4°C for 30 min with rotation. The buffer was removed, and the beads were washed twice with binding buffer. Then the beads were suspended in elution buffer (6 g/liter Tris base, pH 7.5, 8.8 g/liter NaCl, 1 mM DTT, 34 g/liter imidazole, 5% glycerol) and incubated at 4°C for 30 min. The elution was removed and then run on SDS-PAGE gels (Sigma) to confirm the presence of CaDfr1p. SDS-PAGE gels were run according to the manufacturer’s protocol.
The enzymatic activity of C. albicans Dfr1p was determined using a dihydrofolate reductase assay (Sigma). The manufacturer’s protocol was adapted to the fungal enzyme by scaling down the volume to 100-μl reaction mixtures with 88 μl of buffer, 6 μl of a 1 mM NADPH stock, 5 μl of a 1 mM DHF stock, and 1 μl of 3-mg/ml purified enzyme. The loss of NADPH was quantified as the decrease in absorption at the OD340 over a 30-min time frame. The IC50 was calculated by converting the change in the OD340 value per minute into the amount of THF produced per minute and then compared to the level in an untreated control.

The subject of test [3] is wild-type C. albicans strain (SC5314). The test can be described thus: Antifungal susceptibility testing (dose-response growth, OD600). It is filed as cell-based, Candida albicans. The conditions noted are these: for C. albicans growth inhibition (in words): YNB medium, pH 5 and pH 7; for MIC: Candida albicans, SC5314, YNB medium buffered to either pH 5 or 7. How it is done: A wild-type C. albicans strain (SC5314) was seeded at 1 × 10^4 cells/ml into YNB medium without folate or PABA with the indicated supplements and increasing concentrations of MTX. After 48 h of incubation at 30°C, growth was quantified as the OD600 value and expressed as a percentage of the value for the DMSO-treated control. The values presented here are the average of two replicates and are representative of two independent experiments.
Approximately 1 × 10^4 cells/ml of a wild-type C. albicans strain was seeded into a 96-well plate with increasing concentrations of MTX in YNB pH 5, YNB pH 7, and RPMI pH 7 media. After 48 h, the OD600 was measured and expressed as a percentage of the value for the DMSO-treated control. The results presented here are the averages of two replicates and are representative of two independent experiments.
Stock solutions of MTX were prepared at 10 mM in dimethyl sulfoxide (DMSO) and diluted as needed in the same solvent. […] The final concentration of DMSO was 0.5% for all treatments. Plates were then incubated at 30°C before growth was quantified after 24 and 48 h by measuring the OD600 using a Cytation 5 plate reader (Bio-Tek Instruments, Inc.). MIC50 values were identified visually using the CLSI antifungal susceptibility assay and then confirmed by quantifying growth by the OD600 value. The growth of each strain at each drug concentration was then expressed relative to that of the DMSO-alone control. The susceptibility to MTX at the highest concentration at each pH was compared to that of the other pH values using a two-tailed Student's t test.

Test [4] relates to PTET98-DFR1 strain. The test can be described thus: Passaging of doxycycline-repressible strain in fetal bovine serum. The conditions noted are these: Candida albicans, read-out: growth inhibition. Type of test: cell-based. How it is done:
FIG 2 Dfr1p is essential for Candida albicans growth in vitro. A dfr1Δ/PTETO98-DFR1 strain was sequentially passaged in YPD broth (A), YNB broth (B), or fetal bovine serum (C), each supplemented with 5 μg/ml doxycycline (DOX). Following inoculation at approximately 5 × 10^5 cells/ml, each culture was incubated at 30°C for 24 h, and growth was measured after 24 h as the OD600 value. Relative growth was then expressed as a percentage of the untreated control, i.e., without doxycycline. The values presented here are representative of two independent experiments.
A combination of dTMP, adenine, histidine, and methionine, each of which requires folate for its biosynthesis, is sufficient to partially restore S. cerevisiae growth following treatment with antifolates ([36]). However, these supplements were not sufficient to restore C. albicans growth in the presence of MTX (Fig. 3). […] Finally, we examined if C. albicans was able to scavenge sufficient folates or folate-dependent metabolites from blood serum to negate the need for de novo biosynthesis. The PTET98-DFR1 strain was passaged for 3 days in 100% fetal bovine serum (FBS) with or without doxycycline. In the first passage, doxycycline inhibited growth by ∼60%, with increasing growth inhibition seen in subsequent subcultures (Fig. 2C). […]

Test [5] has as its system PTET98-DFR1 strain. The test can be described thus: Mouse model of disseminated candidiasis. Type of test: in vivo, BALB/c mice. On the procedure:
Next, we determined if DFR1 expression is essential for C. albicans virulence in a mammalian host using a mouse model of disseminated candidiasis. Female BALB/c mice were split into two treatment groups: group 1 was treated with doxycycline in a gel food formulation from 72 h before infection and for the duration of the experiment; group 2 was mock treated using unsupplemented gel food. The mice were then infected with ∼5 × 10^5 yeast cells of the PTET98-DFR1 strain via the lateral tail vein, and their health was monitored for 12 days. […] All mice in the mock-treated group succumbed to the infection by day 7 (Fig. 5A), confirming the virulence of the PTET98-DFR1 strain under nonrepressing conditions. […] On day 12, surviving animals were euthanized, kidneys were extracted and homogenized, and levels of fungal colonization were determined as CFU counts. […] To determine if suppression of Dfr1p activity is sufficient to resolve an established infection, a second experiment was performed in which mice were infected with the PTET98-DFR1 strain, and doxycycline treatment was initiated 24-h postinfection. […] Furthermore, C. albicans is unable to scavenge sufficient sources of folate to survive within mammalian tissue, and de novo biosynthesis is required. Indeed, the antifungal efficacy achieved upon repressing Dfr1p expression appears to be similar to that attained upon suppression of Erg11p expression. Accordingly, DHFR and likely other FOL pathway enzymes can provide potentially efficacious targets for antifungal development.
FIG 5 Dfr1p is essential for Candida albicans virulence in a mouse model of disseminated candidiasis. Groups of BALB/c mice (n = 6) were inoculated with ∼5 × 10^5 CFU of either the dfr1Δ/PTET98-DFR1 strain or the erg11Δ/PTETO-ERG11 strain via the lateral tail vein injections. The Erg11p strain was included to compare the antifungal efficacy of targeting Dfr1p with a previously validated target. The mice were monitored three times daily for 12 days, and those showing signs of distress were humanely euthanized. Mice were treated with 2 mg/g doxycycline (DOX) or mock treated with vehicle alone provided in a gel food formulation from 72 h prior to infection and throughout the duration of the experiment. […].
All animal experiments were done according to protocols approved by the University of Tennessee Institutional Animal Care and Use Committee. Groups of 6- to 8-week-old female BALB/c mice (Charles River Laboratories) were randomly assigned to one of three treatment groups 3 days before infection. Group 1 (minus doxycycline) was provided 20 g of DietGel (clear H2O) per day, per cage of 4 mice, while group 2 (plus doxycycline) was provided the same diet supplemented with 2 mg/ml of doxycycline hyclate. Group 3 (posttreatment) mice were given the DietGel without doxycycline until 24 h after infection and were administered 10 mg/kg of doxycycline through oral gavage at […], 24, and 36 h postinfection. Treatment was maintained daily for the duration of the experiment (up to 12 days postinfection). Each C. albicans strain was grown overnight in YPD cultures at 30°C (200 rpm). Cells were washed twice in sterile endotoxin-free phosphate-buffered saline (PBS), and cell density was determined using a hemocytometer. […] Mice were monitored for 12 days, and those showing distress were euthanized. Survival data were plotted on a Kaplan-Meier curve and analyzed by a log rank (Mantel-Cox) test using GraphPad Prism, version 8.00. […]

Where [6] appears, read: doxycycline treatment initiated 24-h postinfection.

The IC50 is the midpoint of a concentration-inhibition curve. The inhibition is the change of the read-out against control, counted positive when it falls. For orientation: MIC means the least concentration at which growth counts as inhibited. The low end stands for greater potency, the high end for weaker potency.

Molecules are shown by their SMILES. Read-outs that look alike come from different tables or passages of the source. Bounds are passed on as bounds.

`C[C@@H](c1nc(-c2ccc(C#N)cc2)cs1)[C@](O)(Cn1cncn1)c1cc(F)ccc1F` [isavuconazole]: the “fraction of patients nonresponsive to treatment” value (shortened to “fraction”) in test [1] was “approximately one-third”.
Consider `C[C@@H](c1ncncc1F)[C@](O)(Cn1cncn1)c1ccc(F)cc1F` [voriconazole], for which the “fraction” value in test [1] is given as “approximately one-third”.
As to `Nc1nc2[nH]cc(CCc3ccc(C(=O)N[C@@H](CCC(=O)O)C(=O)O)cc3)c2c(=O)[nH]1` [Pemetrexed, pemetrexed], in test [2], the half-maximal inhibitory concentration (IC50) worked out at 1000 nM and the “inhibition of C. albicans DHFR (in words)” value is reported as “inhibited C. albicans DHFR activity”. In addition, the “C. albicans growth inhibition (in words)” value in test [3] is “antifungal activity at pH 5 but not at pH 7”.
`CCc1nc(N)nc(N)c1-c1ccc(Cl)cc1` [Pyrimethamine, pyrimethamine]: in test [2], the IC50 turned out to be 100 nM and the “inhibition of C. albicans DHFR (in words)” value was “inhibited C. albicans DHFR activity”. Moreover, in test [3], the “C. albicans growth inhibition (in words)” value was “failed to inhibit C. albicans growth at either pH”.
Turning to `OC(Cn1cncn1)(Cn1cncn1)c1ccc(F)cc1F` [fluconazole], the “fraction” value in test [1] is listed as “approximately one-third”.
Turning to `C[C@H]1c2cccc(O)c2C(=O)C2=C(O)[C@]3(O)C(=O)C(C(N)=O)=C(O)[C@@H](N(C)C)[C@@H]3[C@@H](O)[C@@H]21` [doxycycline], in the test with PTET98-DFR1 strain [4], the inhibition at 5 µg/mL was around 60%. In addition, the “kidney fungal colonization (CFU) on day 12” value in the test on PTET98-DFR1 strain [5] (doxycycline from 72 h before infection) was 5 of the 8 surviving mice had undetectable levels of fungal colonization. In addition, in the test with PTET98-DFR1 strain [5] (doxycycline in gel food from 72 h before infection, monitored 12 days), the survival entry was “all doxycycline-treated mice survived for the duration of the experiment”. Besides, in the test with PTET98-DFR1 strain [5] (setting [6]), the “kidney fungal colonization at end of experiment” value is “Half of these mice had undetectable levels of fungal colonization” and the “time to resolution of initial symptoms” value is listed as at most 6 days. For the same compound, the survival entry in the test on PTET98-DFR1 strain [5] (doxycycline treatment initiated 24-h postinfection, to day 12 postinfection) is on record as “all mice survived the duration of the experiment”.
Turning to `C[C@@H]1[C@H](O)[C@@H](C)/C=C/C=C/C=C/C=C/C=C/C=C/C=C/[C@H](O[C@@H]2O[C@H](C)[C@@H](O)[C@H](N)[C@@H]2O)C[C@@H]2O[C@](O)(C[C@@H](O)C[C@@H](O)[C@H](O)CC[C@@H](O)C[C@@H](O)CC(=O)O[C@H]1C)C[C@H](O)[C@H]2C(=O)O` [amphotericin B], in test [1] (patients with disseminated candidiasis), the favorable response rate is 62%.
`COc1cc(Cc2cnc(N)nc2N)cc(OC)c1OC` [Trimethoprim, trimethoprim] came in with an MIC in test [3] above 25 µM.
Turning to `[H]/N=C(\N/C(=N/[H])Nc1ccc(Cl)cc1)NC(C)C` [Proguanil, proguanil], the “inhibition of C. albicans DHFR (in words)” value in test [2] is given as “lacked activity”. Also, in test [2] (purified C. albicans DHFR (6×His tag), read-out: IC50), the 50% inhibitory concentration (IC50) is above 10000 nM. Besides, in test [3], the minimum inhibitory concentration (MIC) was above 25 µM.
